Read-outs that look alike come from different tables or passages of the source.
Experiments:
Type in all cases: cell-based
[1] = system: Human liver tumor cells HepG2; assay: MTT in vitro cell proliferation inhibition experiment, HepG2; details: MTT method, 48 h contact between compound and cell, read-out: Antiproliferative activity (IC50, μM) HepG2
Method: (§1) Human liver tumor cells HepG2, human colon cancer cells HCT116, and human gastric adenocarcinoma cells AGS were purchased from the Institute of Basic Medical Sciences, Chinese Academy of Medical Sciences. The cells each were preserved and passaged in the laboratory of the present disclosure according to respective cultivation data. Each cell line was routinely inoculated in a 50 mL cell culture flask, and cultivated with a 10% fetal bovine serum-containing DMEM/IRP-1640 medium at 37° C., 5% CO2, and 100% humidity, where the medium was changed daily. When growing to a confluency of 80% to 90%, cells were digested with a mixture of trypsin and EDTA and passaged according to 1:3.
(§2) An in vitro cell activity and proliferation inhibition experiment was conducted by an MTT method to investigate an impact of a target compound on a survival activity of each cell. Cells at a logarithmic growth phase were inoculated at 5×10^3 cells (100 μL)/well in a 96-well culture plate and cultivated for 24 h, and then compound solutions with different concentrations prepared in advance were added (100 μL) to the plate. At least 3 replicate wells were set for each concentration. A solvent control group without a compound and a blank control group without a cell were set. Edge wells each were filled with 200 μL of sterilized water. […] A liquid in each well was completely removed carefully, 150 μL of DMSO was added to each well, the plate was gently shaken on a microshaker for 10 min to make a purple crystal fully dissolved, and then an absorbance value was determined at 570 nm by a microplate reader. With a cell viability of the solvent control group without a compound as 100%, a cell survival rate was calculated as follows: a cell survival rate=(an absorbance value of a compound group−an absorbance value of the blank control group)/(an absorbance value of the control group−an absorbance value of the blank control group)×100%. A half-maximal inhibitory concentration (IC50) of a compound for a cell was calculated by the Graphpad Prism 5 software.

[2] = system: human colon cancer cells HCT116; assay: MTT in vitro cell proliferation inhibition experiment, HCT116; details: 48 h contact between compound and cell, read-out: Antiproliferative activity (IC50, μM) HCT116
Method: as §1, §2

[3] = system: human gastric adenocarcinoma cells AGS; assay: MTT in vitro cell proliferation inhibition experiment, AGS; details: MTT method, 48 h contact between compound and cell, read-out: Antiproliferative activity (IC50, μM) AGS
Method: as §1, §2

[4] = Homo sapiens, HCT-116, MTT method

SMILES	IC50 [1] [µM]	IC50 ([2]; MTT method) [µM]	IC50 [3] [µM]	IC50 ([1]; Homo sapiens) [µM]	IC50 [2, 4] [µM]	IC50 ([3]; Homo sapiens) [µM]
N.N.[Cl][Pt][Cl] [Cisplatin, reference compound]	43.2	39.1	46	–	–	–
CC(C)C1NC2(C(=O)c3ccccc3C2=O)C(C(=O)c2nc3ccccc3[nH]2)C1c1ccc(Cl)c(F)c1 (stereo not drawn) [Compound 26, 3-(1H-benzimidazol-2-carbonyl)-4-(3-fluoro-4-chlorophenyl)-5-isopropylspiro[inden-2,2′-pyrrolidine]-1,3-dione]	–	–	–	> 100	79	60
O=C(c1nc2ccccc2[nH]1)C1C(c2ccc(Cl)cc2)C2CCCN2C12C(=O)c1ccccc1C2=O (stereo not drawn) [Compound 3, 2-(1H-benzimidazol-2-carbonyl)-1-4-chlorophenyl-1,2,5,6,7,7a-hexahydrospiroinden-2,3-pyrrolizine-1,3-dione]	–	–	–	> 100	26.2	30
CCC(C)C1NC2(C(=O)c3ccccc3C2=O)C(C(=O)c2nc3ccccc3[nH]2)C1c1ccc(C)cc1 (stereo not drawn) [Compound 20, 3-(1H-benzimidazol-2-carbonyl)-5-sec-butyl-4-p-tolylspiro[inden-2,2′-pyrrolidine]-1,3-dione]	–	–	–	> 100	51.3	94
CCOc1ccc(C2C(CCSC)NC3(C(=O)c4ccccc4C3=O)C2C(=O)c2nc3ccccc3[nH]2)cc1OCC (stereo not drawn) [Compound 37, 3-(1H-benzimidazol-2-carbonyl)-3,4-diethoxyphenyl-5-(2-methylthio)ethylspiro[inden-2,2′-pyrrolidine]-1,3-dione]	–	–	–	> 100	> 100	78.6
Cc1ccc(C2C3CCCN3C3(C(=O)c4ccccc4C3=O)C2C(=O)c2nc3ccccc3[nH]2)cc1 (stereo not drawn) [Compound 4, 2-(1H-benzimidazol-2-carbonyl)-1-p-tolyl-1,2,5,6,7,7a-hexahydrospiroinden-2,3-pyrrolizine-1,3-dione]	–	–	–	> 100	54.2	17.1
O=C(c1nc2ccccc2[nH]1)C1C(c2ccc(Br)cc2)C2CCCN2C12C(=O)c1ccccc1C2=O (stereo not drawn) [Compound 8, 2-(1H-benzimidazol-2-carbonyl)-1-4-bromophenyl-1,2,5,6,7,7a-hexahydrospiroinden-2,3-pyrrolizine-1,3-dione]	–	–	–	> 100	17.4	25.7
CC(C)CC1NC2(C(=O)c3ccccc3C2=O)C(C(=O)c2nc3ccccc3[nH]2)C1C1CCCCC1 (stereo not drawn) [Compound 9, 3-(1H-benzimidazol-2-carbonyl)-4-cyclohexyl-5-isobutylspiro[inden-2,2′-pyrrolidine]-1,3-dione]	–	–	–	> 100	20.3	69
O=C(c1nc2ccccc2[nH]1)C1C(c2cccc(Br)c2)C(c2c[nH]c3ccccc23)NC12C(=O)c1ccccc1C2=O (stereo not drawn) [Compound 46, 3-(1H-benzimidazol-2-carbonyl)-4-(3-bromophenyl)-5-(1H-indol-3-yl)spiro[inden-2,2′-pyrrolidine]-1,3-dione]	–	–	–	12.2	18.4	21.4
O=C(c1nc2ccccc2[nH]1)C1C(C2CCCCC2)C(c2c[nH]c3ccccc23)NC12C(=O)c1ccccc1C2=O (stereo not drawn) [Compound 41, 3-(1H-benzimidazol-2-carbonyl)-4-cyclohexyl-5-(1H-indol-3-yl)spiro[inden-2,2′-pyrrolidine]-1,3-dione]	–	–	–	89.6	77.4	82.3
CCC(C)C1NC2(C(=O)c3ccccc3C2=O)C(C(=O)c2nc3ccccc3[nH]2)C1c1ccc(Cl)cc1 (stereo not drawn) [Compound 19, 3-(1H-benzimidazol-2-carbonyl)-5-sec-butyl-4-(4-chlorophenyl)spiro[inden-2,2′-pyrrolidine]-1,3-dione]	–	–	–	> 100	42.1	87.5
CCOc1ccc(C2C(C(C)C)NC3(C(=O)c4ccccc4C3=O)C2C(=O)c2nc3ccccc3[nH]2)cc1 (stereo not drawn) [Compound 31, 3-(1H-benzimidazol-2-carbonyl)-4-(4-ethoxyphenyl)-5-isopropylspiro[inden-2,2′-pyrrolidine]-1,3-dione]	–	–	–	44.6	56.4	59.9
O=C(c1nc2ccccc2[nH]1)C1C(c2cccc(Br)c2)C2CCCN2C12C(=O)c1ccccc1C2=O (stereo not drawn) [Compound 6, 2-(1H-benzimidazol-2-carbonyl)-1-3-bromophenyl-1,2,5,6,7,7a-hexahydrospiroinden-2,3-pyrrolizine-1,3-dione]	–	–	–	11.7	6.64	4
CCOc1ccc(C2C(CC(C)C)NC3(C(=O)c4ccccc4C3=O)C2C(=O)c2nc3ccccc3[nH]2)cc1OCC (stereo not drawn) [Compound 13]	–	–	–	> 100	> 100	> 100
CCOc1ccc(C2C(c3c[nH]c4ccccc34)NC3(C(=O)c4ccccc4C3=O)C2C(=O)c2nc3ccccc3[nH]2)cc1 (stereo not drawn) [Compound 47]	–	–	–	34.6	39.8	38
CSCCC1NC2(C(=O)c3ccccc3C2=O)C(C(=O)c2nc3ccccc3[nH]2)C1c1ccc(C)cc1 (stereo not drawn) [Compound 36, 3-(1H-benzimidazol-2-carbonyl)-5-(2-methylthio)ethyl-4-p-tolylspiro[inden-2,2′-pyrrolidine]-1,3-dione]	–	–	–	13.5	15.5	9.78
CSCCC1NC2(C(=O)c3ccccc3C2=O)C(C(=O)c2nc3ccccc3[nH]2)C1c1ccc(Cl)c(F)c1 (stereo not drawn) [Compound 34, 3-(1H-benzimidazol-2-carbonyl)-4-(4-chloro-3-fluorophenyl)-5-(2-methylthio)ethylspiro[inden-2,2′-pyrrolidine]-1,3-dione]	–	–	–	36.6	44.7	39.7
CC(C)CC1NC2(C(=O)c3ccccc3C2=O)C(C(=O)c2nc3ccccc3[nH]2)C1c1cccc(Br)c1 (stereo not drawn) [Compound 14, 3-(1H-benzimidazol-2-carbonyl)-4-(3-bromophenyl)-5-isobutylspiro[inden-2,2′-pyrrolidine]-1,3-dione]	–	–	–	11.7	5.88	7.92
CC(C)CC1NC2(C(=O)c3ccccc3C2=O)C(C(=O)c2nc3ccccc3[nH]2)C1c1ccc(Br)cc1 (stereo not drawn) [Compound 16, 3-(1H-benzimidazol-2-carbonyl)-4-(4-bromophenyl)-5-isobutylspiro[inden-2,2′-pyrrolidine]-1,3-dione]	–	–	–	49.7	10.8	20.9
CCC(C)C1NC2(C(=O)c3ccccc3C2=O)C(C(=O)c2nc3ccccc3[nH]2)C1C1CCCCC1 (stereo not drawn) [Compound 17, 3-(1H-benzimidazol-2-carbonyl)-5-sec-butyl-4-cyclohexylspiro[inden-2,2′-pyrrolidine]-1,3-dione]	–	–	–	16.2	11.1	14.7
CCOc1ccc(C2C3CCCN3C3(C(=O)c4ccccc4C3=O)C2C(=O)c2nc3ccccc3[nH]2)cc1 (stereo not drawn) [Compound 7, 2-(1H-benzimidazol-2-carbonyl)-1-(4-ethoxyphenyl)-1,2,5,6,7,7a-hexahydrospiroinden-2,3-pyrrolizine-1,3-dione]	–	–	–	20.5	7.99	7.73
CC(C)C1NC2(C(=O)c3ccccc3C2=O)C(C(=O)c2nc3ccccc3[nH]2)C1C1CCCCC1 (stereo not drawn) [Compound 25, 3-(1H-benzimidazol-2-carbonyl)-4-cyclohexyl-5-isopropylspiro[inden-2,2′-pyrrolidine]-1,3-dione]	–	–	–	9.67	5.67	12.4
Cc1ccc(C2C(c3c[nH]c4ccccc34)NC3(C(=O)c4ccccc4C3=O)C2C(=O)c2nc3ccccc3[nH]2)cc1 (stereo not drawn) [Compound 44, 3-(1H-benzimidazol-2-carbonyl)-5-(1H-indol-3-yl)-4-p-tolylspiro[inden-2,2′-pyrrolidine]-1,3-dione]	–	–	–	5.67	5.34	6.02
CCOc1ccc(C2C(C(C)CC)NC3(C(=O)c4ccccc4C3=O)C2C(=O)c2nc3ccccc3[nH]2)cc1OCC (stereo not drawn) [Compound 21]	–	–	–	41.3	35.5	33.8
Cc1ccc(C2C(C(C)C)NC3(C(=O)c4ccccc4C3=O)C2C(=O)c2nc3ccccc3[nH]2)cc1 (stereo not drawn) [Compound 28, 3-(1H-benzimidazol-2-carbonyl)-5-isopropyl-4-p-tolylspiro[inden-2,2′-pyrrolidine]-1,3-dione]	–	–	–	3.45	4.56	2.98
